Results: publication PMC8413292, “Small-molecule polymerase inhibitor protects non-human primates from measles and reduces shedding” (Nature Communications, 2021)
Several values for one entry are separate records, joined by “and”; a condition that tells them apart may be missing. Equal entries are not always repeated.

How the values were obtained:
[1] = tested on: MV/FrankfurtMain.DEU/17.11 (genotype D8); assay: PBMC-associated viremia titers (limited dilution, TCID50/10^6 PBMCs); format: in vivo, squirrel monkeys (Saimiri sciureus); settings: for PBMC Titers, group mean (Mean 2): therapeutic (d7)
Protocol: (§1) White blood cell counts, viral load quantification in PBMCs, and quantification of neutralizing antibody titers were performed as follows: for white blood cell counts, blood was diluted 1:100 in 3% acetic acid and cells were counted using a Neubauer chamber. For viral load quantification in PBMCs, blood was centrifuged at 3000 rpm for 15 min and serum was frozen at −20 °C until further use. Red blood cell lysis was performed and the remaining PBMCs were counted using a Neubauer chamber. Viral titers in PBMCs were quantified in quadruplicates using limited dilution method and calculated as TCID50/10^6 PBMCs. Neutralizing antibody titers were quantified by incubating MeV with 2-fold serial dilutions of the respective serum for 20 min at room temperature in quadruplicates. Vero/hSLAM cells were added and incubated for 3 days at 37 °C. Neutralizing antibody titers are expressed as the reciprocal of the highest serum dilution showing no signs of infection. For virus titration from throat swabs, swabs were placed in 150 μl DMEM with 3% penicillin/streptomycin and the titer was quantified by limited dilution method.

[2] = tested on: MV/FrankfurtMain.DEU/17.11 (genotype D8); assay: Neutralizing antibody titers in serum; format: in vivo, squirrel monkeys (Saimiri sciureus); settings: lower limit of detection = 10
Protocol: as §1

With Cn1nc(C(F)(F)F)cc1C(=O)Nc1ccc(S(=O)(=O)N2CCCC[C@H]2CCN2CCOCC2)cc1 [ERDRP-0519] the “PBMC Titers, group mean (Mean 2)” value ([1]; Row 2 (2nd of 7 time points)) was 0.7636, the “PBMC Titers, group mean (Mean 2)” value ([1]; Row 3 (3rd of 7 time points)) was 1.95 and the “PBMC Titers, group mean (Mean 2)” value ([1]; Row 4 (4th of 7 time points)) was 2.46. For the same compound, the “PBMC Titers, group mean (Mean 2)” value ([1]; Row 5 (5th of 7 time points)) was 0.49, the “PBMC Titers, group mean (Mean 2)” value ([1]; Row 6 (6th of 7 time points)) was 0.3 and the “PBMC Titers, group mean (Mean 2)” value ([1]; Row 7 (7th of 7 time points)) was 0. The “effect on height of maximum virus load” value ([1]; treatment initiated at day 7 post-infection, maximum on day 10) was “no significant effect on the height of maximum virus load”, the “PBMC Titers, Mean Diff, untreated vs. treated” value ([1]; untreated vs. prophylactic, Row 1 (1st of 7 time points)) was 0 and the “PBMC Titers, Mean Diff, untreated vs. treated” value ([1]; untreated vs. prophylactic, Row 2 (2nd of 7 time points)) was 0.1201. For the same compound, the “PBMC Titers, Mean Diff, untreated vs. treated” value ([1]; untreated vs. prophylactic, Row 3 (3rd of 7 time points)) was 2.622, the “PBMC Titers, Mean Diff, untreated vs. treated” value ([1]; untreated vs. prophylactic, Row 4 (4th of 7 time points)) was 1.541 and the “PBMC Titers, Mean Diff, untreated vs. treated” value ([1]; untreated vs. prophylactic, Row 5 (5th of 7 time points)) was 0.3677. The “PBMC Titers, Mean Diff, untreated vs. treated” value ([1]; untreated vs. prophylactic, Row 6 (6th of 7 time points)) was 0.1017, the “PBMC Titers, Mean Diff, untreated vs. treated” value ([1]; untreated vs. prophylactic, Row 7 (7th of 7 time points)) was -0.3917 and the “PBMC Titers, Mean Diff, untreated vs. treated” value ([1]; untreated vs. therapeutic (d3), Row 1 (1st of 7 time points)) was 0. The “PBMC Titers, Mean Diff, untreated vs. treated” value ([1]; untreated vs. therapeutic (d3), Row 2 (2nd of 7 time points)) was -0.06733, the “PBMC Titers, Mean Diff, untreated vs. treated” value ([1]; untreated vs. therapeutic (d3), Row 3 (3rd of 7 time points)) was 2.195 and the “PBMC Titers, Mean Diff, untreated vs. treated” value ([1]; untreated vs. therapeutic (d3), Row 4 (4th of 7 time points)) was 1.128. For the same compound, the “PBMC Titers, Mean Diff, untreated vs. treated” value ([1]; untreated vs. therapeutic (d3), Row 5 (5th of 7 time points)) was 0.2444, the “PBMC Titers, Mean Diff, untreated vs. treated” value ([1]; untreated vs. therapeutic (d3), Row 6 (6th of 7 time points)) was 0.23 and the “PBMC Titers, Mean Diff, untreated vs. treated” value ([1]; untreated vs. therapeutic (d3), Row 7 (7th of 7 time points)) was 0. The “PBMC Titers, Mean Diff, untreated vs. treated” value ([1]; untreated vs. therapeutic (d7), Row 1 (1st of 7 time points)) was 0, the “PBMC Titers, Mean Diff, untreated vs. treated” value ([1]; untreated vs. therapeutic (d7), Row 2 (2nd of 7 time points)) was -0.3527 and the “PBMC Titers, Mean Diff, untreated vs. treated” value ([1]; untreated vs. therapeutic (d7), Row 3 (3rd of 7 time points)) was 0.9232. For the same compound, the “PBMC Titers, Mean Diff, untreated vs. treated” value ([1]; untreated vs. therapeutic (d7), Row 4 (4th of 7 time points)) was -0.6175, the “PBMC Titers, Mean Diff, untreated vs. treated” value ([1]; untreated vs. therapeutic (d7), Row 5 (5th of 7 time points)) was -0.1223 and the “PBMC Titers, Mean Diff, untreated vs. treated” value ([1]; untreated vs. therapeutic (d7), Row 6 (6th of 7 time points)) was -0.06996. The “PBMC Titers, Mean Diff, untreated vs. treated” value ([1]; untreated vs. therapeutic (d7), Row 7 (7th of 7 time points)) was 0, the “neutralizing antibody titer, dilution factor [1/dilution]” value (“neutralizing antibody titer” below) ([2]; prophylactic group, day 0, individual animals) was 10 1/dilution and the “neutralizing antibody titer” value ([2]; prophylactic group, day 3, individual animals) was 10 1/dilution. For the same compound, the “neutralizing antibody titer” value ([2]; prophylactic group, day 7, individual animals) was 10 1/dilution, the “neutralizing antibody titer” value ([2]; prophylactic group, day 10, individual animals) was 10 1/dilution and the “neutralizing antibody titer” value ([2]; prophylactic group, day 14, individual animals) was 10 1/dilution (3×) and 80 1/dilution and 15 1/dilution and 30 1/dilution. For the same compound, the “neutralizing antibody titer” value ([2]; prophylactic group, day 17, individual animals) was 160 1/dilution and 240 1/dilution and 10 1/dilution (3×) and 17.5 1/dilution, the “neutralizing antibody titer” value ([2]; prophylactic group, day 21, individual animals) was 640 1/dilution and 200 1/dilution and 120 1/dilution and 10 1/dilution (2×) and 35 1/dilution and the “neutralizing antibody titer” value ([2]; therapeutic (d3) group, day 0, individual animals) was 10 1/dilution. For the same compound, the “neutralizing antibody titer” value ([2]; therapeutic (d3) group, day 3, individual animals) was 10 1/dilution, the “neutralizing antibody titer” value ([2]; therapeutic (d3) group, day 7, individual animals) was 10 1/dilution and the “neutralizing antibody titer” value ([2]; therapeutic (d3) group, day 10, individual animals) was 25 1/dilution and 10 1/dilution (2×) and 12.5 1/dilution. For the same compound, the “neutralizing antibody titer” value ([2]; therapeutic (d3) group, day 14, individual animals) was 800 1/dilution and 35 1/dilution and 10 1/dilution and 280 1/dilution and 400 1/dilution and 70 1/dilution, the “neutralizing antibody titer” value ([2]; therapeutic (d3) group, day 17, individual animals) was 200 1/dilution (2×) and 30 1/dilution and 240 1/dilution and 80 1/dilution and the “neutralizing antibody titer” value ([2]; therapeutic (d3) group, day 21, individual animals) was 320 1/dilution (2×) and 70 1/dilution and 140 1/dilution and 120 1/dilution. The “neutralizing antibody titer” value ([2]; therapeutic (d7) group, day 0, individual animals) was 10 1/dilution, the “neutralizing antibody titer” value ([2]; therapeutic (d7) group, day 3, individual animals) was 10 1/dilution (5×) and 12.5 1/dilution and the “neutralizing antibody titer” value ([2]; therapeutic (d7) group, day 7, individual animals) was 10 1/dilution (5×) and 15 1/dilution. For the same compound, the “neutralizing antibody titer” value ([2]; therapeutic (d7) group, day 10, individual animals) was 20 1/dilution and 12.5 1/dilution.
